Results published in BindingDB's records for doi:10.1021/jm00394a022 (Pennsylvania State University, 1987).

Assays:
[1] = molecular target: Glutamine synthetase (Pisum sativum); experiment: Compound was evaluated for binding affinity by the inhibition of Glutamine synthetase (Pea seed) activity using biosynthetic assay [noncompetitive inhibition]
[2] = molecular target: Glutamine synthetase (Ovis aries); experiment: Compound was evaluated for binding affinity by the inhibition of Glutamine synthetase (Ovine brain) activity using biosynthetic assay [competitive inhibition]
[3] = molecular target: Glutamine synthetase (Escherichia coli) (UniProt P0A9C5); experiment: Compound was evaluated for binding affinity by the inhibition of Glutamine synthetase (Escherichia coli) activity using biosynthetic assay [mixed Non-competitive inhibition]
Glutamine synthetase (Escherichia coli), sequence (P0A9C5 whole entry, looked up): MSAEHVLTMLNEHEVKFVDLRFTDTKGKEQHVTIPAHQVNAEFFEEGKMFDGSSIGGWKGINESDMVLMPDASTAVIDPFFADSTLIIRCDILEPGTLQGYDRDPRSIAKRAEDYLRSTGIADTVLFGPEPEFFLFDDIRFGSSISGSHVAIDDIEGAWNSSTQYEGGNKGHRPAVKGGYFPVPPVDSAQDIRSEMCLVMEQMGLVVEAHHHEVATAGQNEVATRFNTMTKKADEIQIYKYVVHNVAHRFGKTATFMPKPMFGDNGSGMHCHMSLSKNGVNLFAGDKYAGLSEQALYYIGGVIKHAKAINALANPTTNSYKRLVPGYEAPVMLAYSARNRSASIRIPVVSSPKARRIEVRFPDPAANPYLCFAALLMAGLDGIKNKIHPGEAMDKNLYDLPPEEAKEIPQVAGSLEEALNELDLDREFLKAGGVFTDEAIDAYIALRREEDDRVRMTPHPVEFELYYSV

SMILES: NC(CCP(=O)(O)CP(=O)(O)O)C(=O)O (stereo not drawn) [2-ammonio-4-[hydroxy(phosphonomethyl)phosphoryl]butanoate]
- Ki [1]: 250 µM
- Ki [2]: 750 µM
- Ki [3]: 75 µM
